Reference: patent US10611765B2, “Pyrrolopyrimidine derivatives as Mps1/TTK kinase inhibitors” (Ohio State Innovation Foundation, priority 2014, dated 2020)
pIC50: −log10 of the molar value.

Experiments:
[1] = test system: BT-549; experiment: MTS anti-proliferative assay, BT-549; type: cell-based; settings: Homo sapiens, 168 h, BT-549, TNBC, basal B, treatment for 7 days
Description: (§1) The anti-proliferative effects and IC50 values of the compounds in the BC cell line panel were determined by MTS assay.
(§2) The cells, except Sk-Br-3, AU565 and BT-474 were maintained in a mixture of Dulbecco's modified Eagle's medium and Ham's F12 medium (1:1) (DMEM/F12) without phenol red supplemented with 5% fetal bovine serum (FBS) and 1× antibiotic-antimycotic (100 U/mL penicillin G sodium, 100 μg/mL streptomycin sulfate and 0.25 μg/mL amphotericin B) and were plated separately in flasks in a humidified incubator (5% CO2: 95% air, 37° C.). The media used for Sk-Br-3, AU565 and BT-474 cell lines was described in (1) Brueggemeier et al., J. Steroid Biochem. Mol. Biol., 2005; 95:129-136; and (2) Diaz-Cruz et al., J. Clin. Endocrinol. Metab., 2005; 90:2563-2570. The media were changed every 2-days. When the cells grew to about 80% confluence, cells were washed twice with calcium- and magnesium-free phosphate-buffered saline (PBS, pH 7.4), and then trypsinized with 0.05% trypsin-5.3 mm EDTA. The trypsinization was stopped by addition of culture medium with 5% FBS. After centrifugation, the dissociated cells were resuspended in the same medium and subcultured into 75-cm^2 culture flasks at a ratio of 1:5 flasks.
(§3) The BC cells were seeded at the density of 1,000 cells per well (100 μL) into 96 well plate in DMEM/F-12 (1:1), supplemented with 5% (v/v) FCS and incubated overnight at 37° C. Test compounds are solubilized in dimethyl sulfoxide (DMSO), diluted in cell culture medium to a range of final assay concentrations of 1 nM to 10 μM, added to cells and incubated for 7 days at 37° C. The medium including the test compound are refreshed at days 3 and 5. The MTS assay are carried out by using the CellTiter 96® AQueous One Solution Cell Proliferation Assay kit following the manufacturer's instruction.

[2] = test system: MDA-MB-453; experiment: MTS anti-proliferative assay, MDA-MB-453; type: cell-based; settings: Homo sapiens, 168 h, MDA-MB-453, luminal A, treatment for 7 days
Description: as §1
(§4) The media were changed every 2-days. When the cells grew to about 80% confluence, cells were washed twice with calcium- and magnesium-free phosphate-buffered saline (PBS, pH 7.4), and then trypsinized with 0.05% trypsin-5.3 mm EDTA. The trypsinization was stopped by addition of culture medium with 5% FBS.
as §3

[3] = test system: T47D; experiment: MTS anti-proliferative assay, T47D; type: cell-based; settings: Homo sapiens, 168 h, luminal, treatment for 7 days
Description: as §1, §2, §3

[4] = test system: Cal-51 cells; experiment: Centriole assembly / centrosome amplification assay, Cal-51; type: cell-based
Description: (§5) For these cell biology assays, cells were plated onto poly-L-lysine coated coverslips in 24 well dishes using the medium and growth conditions described above, but using medium containing phenol red. At 24 hours after plating, compounds (or the equivalent amount of DMSO) were added to individual wells at various concentrations. Cells were incubated for 24 hours at 37° C. BrdU was added during the last 4 hours of the incubation, after which cells were fixed in pre-chilled methanol at −20 OC for 10 minutes, stained with centrosome markers, then treated with acid to denature chromosomal DNA prior to staining for BrdU. To assess centriole biogenesis, centriole number was determined for triplicate samples in cells that had entered S-phase as judged by incorporation of BrdU. Primary antibodies used were mouse anti-γTubulin (pericentriolar material) and rabbit anti-Centrin 2 (centrioles). Secondary antibodies used were Alexa594-conjugated donkey anti-mouse and Alexa488-conjugated donkey anti-rabbit.
For centriole assembly assays, Cal-51 and MDA-MB-468 cells were treated with candidate compounds prior to a short pulse of BrdU. Because the centriole pair is replicated at the G1/S transition, compounds that block centrosome assembly will lead to an increased number of BrdU-positive cells with two centrioles. In addition, like many breast cancer cells Cal-51 and MDA-MB-468 are capable of centrosome amplification, and compounds that block this centrosome amplification should reduce the number of BrdU-positive cells with more than four centrioles.

[5] = test system: Cal-51 cells; experiment: Spindle checkpoint assay, Cal-51; type: cell-based; settings: for abrogating the spindle checkpoint: Cal-51, at 1 μM
Description: For spindle checkpoint assays, S-phase arrested cells treated with candidate compounds were released into medium containing the spindle poison nocodazole. Because the spindle checkpoint prevents the metaphase to anaphase transition in the presence of spindle damage, compounds that block the spindle checkpoint will lead to a decreased number of mitotic cells in the presence of nocodazole. Briefly, cells were arrested in S-phase with a 24 hour treatment with 2 mM thymidine. Three hours after removing thymidine to release cells from S-phase arrest, nocodazole was added at 200 ng/mL. After 12 hours in the presence of nocodazole, cells were fixed and stained with mouse anti-cyclin B and Hoechst, and the percentage of cyclin B positive cells with condensed chromosomes was determined in triplicate samples.

[6] = test system: MCF-7; experiment: MTS anti-proliferative assay, MCF-7; type: cell-based; settings: Homo sapiens, MCF7, 168 h, MCF-7, luminal A, treatment for 7 days
Description: as §1, §2, §3

[7] = test system: MDA-MB-468 cells; experiment: Centriole assembly / centrosome amplification assay, MDA-MB-468; type: cell-based; settings: compared to IN-1, AZ3146 and Compound 5
Description: as §5
For centriole assembly assays, Cal-51 and MDA-MB-468 cells were treated with candidate compounds prior to a short pulse of BrdU. Because the centriole pair is replicated at the G1/S transition, compounds that block centrosome assembly will lead to an increased number of BrdU-positive cells with two centrioles. […]

[8] = test system: MDA-MB-436; experiment: MTS anti-proliferative assay, MDA-MB-436; type: cell-based; settings: Homo sapiens, 168 h, MDA-MB-436, TNBC, basal B, treatment for 7 days
Description: as §1, §4, §3

[9] = target: Mps1 (autophosphorylation) (Homo sapiens, UniProt P33981); experiment: biochemical
Description: (§6) Briefly, the inhibition potency to Mps1 kinase activity was determined by measurement of radioactive phosphotransfer to the specific substrate, Cetn2. The autophosphorylation of Mps1 was also measured using the same method without adding Cetn2 in the kinase assay reaction mixture. […] Mps1 activity was measured using 0.25 ng of recombinant GST-Mps1 protein in 50 mM TrisCl pH 7.5, 0.5 mM DTT, 10 mM MgCl2, 300 μM recombinant Cetn2 and 3 μM ^32P-γ-ATP. […] ATP was added to initiate the kinase assay, incubated at 30° C. for 30 min and five-fold volume of […] was added to quench the reaction. The whole reaction was immobilized on Immobilon-P^SQ PVDF membrane (Millipore) using a dot blotter connected to vacuum line. Each well was washed three times with 300 μL of PBS. The membrane was further washed by soaking in PBS, dried, and exposed overnight to a Phosphor Screen. The image was acquired by the Storm imaging system (Amersham). The density analyses were performed by using Image-J program, and kinetic constants were calculated by GraphPad Prism 5 software. Commercial kinase profiling assays were performed by Reaction Biology Corp., Malvern, Pa.

[10] = target: JNK1 (Homo sapiens, UniProt P45983); settings: read-out: IC50 JNK1; kinase profiling
Description: as §6

[11] = target: twenty common kinases; experiment: Kinase profiling assays for twenty common kinases; type: biochemical
Description: as §6

Mps1 (autophosphorylation), sequence (P33981 whole entry): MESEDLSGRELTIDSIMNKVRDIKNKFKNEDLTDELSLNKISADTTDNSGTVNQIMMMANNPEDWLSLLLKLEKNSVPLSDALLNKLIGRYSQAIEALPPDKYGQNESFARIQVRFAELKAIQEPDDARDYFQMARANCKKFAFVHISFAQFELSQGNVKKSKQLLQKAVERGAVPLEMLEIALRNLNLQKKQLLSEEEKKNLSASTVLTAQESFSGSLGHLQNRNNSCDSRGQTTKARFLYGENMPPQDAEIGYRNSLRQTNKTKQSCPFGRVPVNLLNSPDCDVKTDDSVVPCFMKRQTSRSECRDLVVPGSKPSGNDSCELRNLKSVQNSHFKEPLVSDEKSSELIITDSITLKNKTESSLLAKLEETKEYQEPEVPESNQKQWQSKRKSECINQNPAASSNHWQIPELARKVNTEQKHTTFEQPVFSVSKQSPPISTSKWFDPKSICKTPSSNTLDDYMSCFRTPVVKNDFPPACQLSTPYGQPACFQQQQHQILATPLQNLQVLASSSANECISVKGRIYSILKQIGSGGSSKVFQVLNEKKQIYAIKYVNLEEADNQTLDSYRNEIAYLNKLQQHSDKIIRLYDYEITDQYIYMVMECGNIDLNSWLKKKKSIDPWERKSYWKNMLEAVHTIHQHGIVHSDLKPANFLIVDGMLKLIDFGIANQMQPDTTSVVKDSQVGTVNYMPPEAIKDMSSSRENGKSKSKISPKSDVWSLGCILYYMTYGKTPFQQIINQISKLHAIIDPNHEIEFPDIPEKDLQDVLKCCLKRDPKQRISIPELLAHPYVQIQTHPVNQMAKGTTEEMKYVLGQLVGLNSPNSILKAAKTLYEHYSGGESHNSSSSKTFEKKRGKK
JNK1, sequence (P45983 whole entry): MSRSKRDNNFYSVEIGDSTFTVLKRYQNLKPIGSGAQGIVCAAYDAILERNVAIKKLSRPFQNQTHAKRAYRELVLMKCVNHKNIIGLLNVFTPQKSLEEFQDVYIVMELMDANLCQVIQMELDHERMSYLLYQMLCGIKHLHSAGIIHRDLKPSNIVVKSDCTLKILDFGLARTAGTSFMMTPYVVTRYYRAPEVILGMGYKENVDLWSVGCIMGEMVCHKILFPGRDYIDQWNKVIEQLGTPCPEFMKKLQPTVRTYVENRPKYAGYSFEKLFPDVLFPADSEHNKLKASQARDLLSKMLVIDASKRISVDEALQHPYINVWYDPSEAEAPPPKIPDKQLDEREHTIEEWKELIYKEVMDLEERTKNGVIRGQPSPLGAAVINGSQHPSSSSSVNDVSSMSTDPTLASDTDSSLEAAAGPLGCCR

SMILES | pIC50 [1] | pIC50 [2] | pIC50 [3] | percentage of cells with more than four centrioles (centrosome amplification) ([4]; Cal-51) | percentage of BrdU positive cells that have just two centrioles (centriole assembly) ([4]; Cal-51, continued investigations) | abrogating the spindle checkpoint [5] | ability of cells to arrest in response to nocodazole ([5]; Cal-51, nocodazole 200 ng/mL, 12 hours) | pIC50 [6] | percentage of BrdU-positive cells that have just two centrioles [7] | percentage of cells with more than four centrioles [7] | pIC50 [8] | pIC50 [9] | pIC50 [10] | kinases inhibited in profiling of twenty common kinases [11]
COc1cc(N2CCC(O)CC2)ccc1Nc1nc(Nc2ccccc2S(=O)(=O)C(C)C)c2cc[nH]c2n1 [Compound 1, 1-(4-((4-((2-(isopropylsulfonyl)phenyl)amino)-7H-pyrrolo[2,3-d]pyrimidin-2-yl)amino)-3-methoxyphenyl)piperidin-4-ol] | 6.09 | 6.09 | < 5.00 | dose-dependent reduction | dose-dependent increase | more effective than IN-1, AZ3146, or compound 5 | dose-dependent reduction | 6.36 | increases | decreases | 6.05 |  |  | 
COc1cc(N2CCOCC2)ccc1Nc1nc(NC2CCCCC2)c2cc[nH]c2n1 [Compound 13, N4-cyclohexyl-N2-(2-methoxy-4-morpholinophenyl)-7H-pyrrolo[2,3-d]pyrimidine-2,4-diamine] |  |  | < 5.00 |  |  | most effective |  | < 5.00 |  |  |  | 6.51 | 5.78 | only two kinases
